Source: US20170232083A1, “METHODS OF DIAGNOSIS AND TREATMENT OF CELIAC DISEASE IN CHILDREN” (priority 2014, published 2017)

Tested on: PBMC (polyclonal gluten-specific T cells) of paediatric and adult CD patients
Test: IFN-γ ELISpot of PBMC after 3 day oral wheat challenge (SFU, % of maximal peptide response, dominance scores, EC50; Examples 5-6)
Assay type: cell-based, human
Details: for IFN-γ ELISpot response: after oral wheat challenge; for Cross-reactive T cell response: following wheat challenge
[1] = patient A, 11-17 yrs, cut-off 10 SFU
[2] = patient E, H, 11-17 yrs, cut-off 10 SFU
[3] = patient F, 11-17 yrs, cut-off 10 SFU
[4] = patient G, 11-17 yrs, cut-off 10 SFU
[5] = patient H (HLA-DQ2.5 homozygote), 3-5yrs, cut-off 10 SFU
[6] = patient H, 11-17 yrs, cut-off 10 SFU
[7] = patient ID not given, 11-17 yrs, cut-off 10 SFU
[8] = patient N, 3-5yrs, cut-off 10 SFU
[9] = patient P, 11-17 yrs, cut-off 21.6 SFU
[10] = patient Q, 11-17 yrs, cut-off 10 SFU
[11] = patient U, H, 11-17 yrs, cut-off 10 SFU
[12] = patient V, 6-10 yrs, cut-off 10 SFU
[13] = patient Y, 6-10 yrs, cut-off 10 SFU
[14] = patient eleven, 6-10 yrs, cut-off 10 SFU
[15] = patient four, 3-5yrs, cut-off 10 SFU
[16] = patient seven, 6-10 yrs, cut-off 10.5 SFU
[17] = patient ten, 3-5yrs, cut-off 10 SFU
[18] = patient three, 6-10 yrs, cut-off 10.5 SFU
[19] = patient twelve, 11-17 yrs, cut-off 10 SFU
[20] = patient two, 3-5yrs, cut-off 10 SFU

In the case of GQSGYYPTSPQQS, the “IFN-γ ELISpot response” value [1] is reported as 5 SFU, the “IFN-γ ELISpot response” value [2] is reported as 0 SFU and the “IFN-γ ELISpot response” value [3] is reported as 10 SFU. For the same sequence, the “Significant response as percentage of maximal peptide SFU” value (shortened to “Significant response as percentage”) (patient F, max peptide 178 SFU) was “(6-10% = ^)”, the “IFN-γ ELISpot response” value [4] was 1 SFU and the “IFN-γ ELISpot response” value [5] was 2 SFU. For the same sequence, the “IFN-γ ELISpot response” value [6] was 4 SFU, the “IFN-γ ELISpot response” value [7] was 1 SFU and the “Significant response as percentage” value (patient II, max peptide 15 SFU) was “+ (>70% = +)”. For the same sequence, the “IFN-γ ELISpot response” value [8] was 0 SFU, the “IFN-γ ELISpot response” value [9] was 10 SFU and the “IFN-γ ELISpot response” value [10] was 5 SFU. For the same sequence, the “IFN-γ ELISpot response” value [11] was 4 SFU, the “IFN-γ ELISpot response” value [12] was 3 SFU and the “IFN-γ ELISpot response” value [13] was 0 SFU. For the same sequence, the “IFN-γ ELISpot response” value [14] was 4 SFU, the “IFN-γ ELISpot response” value [15] was 3 SFU and the “IFN-γ ELISpot response” value [16] was 11 SFU. The “Significant response as percentage” value (patient seven, max peptide 27 SFU) was “′′′ (41-70% = ′′′)”, the “IFN-γ ELISpot response” value [17] was 5 SFU and the “IFN-γ ELISpot response” value [18] was 6 SFU. The “IFN-γ ELISpot response” value [19] was 2 SFU and the “IFN-γ ELISpot response” value [20] was 2 SFU.

In the case of LPFPQPEQPFVVV, the “Cross-reactive T cell response” value (subject A, 11-17yrs) is reported as 1 SFU, the “Significant response as a percentage of maximal peptide SFU” value (from here on “Significant response as a percentage”) (subject D, 11-17yrs) is reported as “′′′ (41-70% = ′′′)” and the “Cross-reactive T cell response” value (subject D, 11-17yrs) is reported as 20 SFU. The “Significant response as a percentage” value (subject E, 11-17yrs) was “(6-10% - ^)”, the “Cross-reactive T cell response” value (subject E, 11-17yrs) was 16 SFU and the “Significant response as a percentage” value (subject F, 11-17yrs) was “(6-10% - ^)”. The “Cross-reactive T cell response” value (subject F, 11-17yrs) was 15 SFU, the “Cross-reactive T cell response” value (subject G, 11-17yrs) was 3 SFU and the “Cross-reactive T cell response” value (subject H) was 3 SFU. For the same sequence, the “Cross-reactive T cell response” value (subject I (3-5yrs/6-10yrs part)) was 7 SFU, the “Significant response as a percentage” value (subject J) was “′ (11-20% = ′)” and the “Cross-reactive T cell response” value (subject J (3-5yrs/6-10yrs part)) was 29 SFU. The “Significant response as a percentage” value (subject K) was “′′ (21-40% = ′′)”, the “Cross-reactive T cell response” value (subject K (3-5yrs/6-10yrs part)) was 18 SFU and the “Cross-reactive T cell response” value (subject P, 11-17yrs) was 20 SFU. The “Significant response as a percentage” value (subject Q, 11-17yrs) was “′′ (21-40% = ′′)”, the “Cross-reactive T cell response” value (subject Q, 11-17yrs) was 31 SFU and the “Significant response as a percentage” value (subject T, 11-17yrs) was “′′′ (41-70% = ′′′)”. The “Cross-reactive T cell response” value (subject T, 11-17yrs) was 42 SFU, the “Cross-reactive T cell response” value (subject U, 11-17yrs) was 8 SFU and the “Significant response as a percentage” value (subject V) was “′′ (21-40% = ′′)”. For the same sequence, the “Cross-reactive T cell response” value (subject V (3-5yrs/6-10yrs part)) was 13 SFU, the “Cross-reactive T cell response” value (subject W (3-5yrs/6-10yrs part)) was 9 SFU and the “Cross-reactive T cell response” value (subject Y (3-5yrs/6-10yrs part)) was 7 SFU. For the same sequence, the “Significant response as a percentage” value (subject five) was “+ (>70% = +)”, the “Cross-reactive T cell response” value (subject five (3-5yrs/6-10yrs part)) was 34 SFU and the “Cross-reactive T cell response” value (subject nine, 11-17yrs) was 1 SFU. For the same sequence, the “Cross-reactive T cell response” value (subject seven (3-5yrs/6-10yrs part)) was 3 SFU, the “Cross-reactive T cell response” value (subject six (3-5yrs/6-10yrs part)) was 8 SFU and the “Cross-reactive T cell response” value (subject ten (3-5yrs/6-10yrs part)) was 8 SFU. For the same sequence, the “Significant response as a percentage” value (subject two) was “′′ (21-40% = ′′)” and the “Cross-reactive T cell response” value (subject two (3-5yrs/6-10yrs part)) was 18 SFU.

For LPYPQPQLPYPQP, the “IFN-γ ELISpot response” value [1] was 3 SFU, the “IFN-γ ELISpot response” value [2] was 61 SFU and the “Significant response as percentage” value (patient E, max peptide 224 SFU) was “′′ (21-40% = ′′)”. The “IFN-γ ELISpot response” value [3] was 120 SFU, the “Significant response as percentage” value (patient F, max peptide 178 SFU) was “′′′ (41-70% = ′′′)” and the “IFN-γ ELISpot response” value [4] was 2 SFU. For the same sequence, the “IFN-γ ELISpot response” value [5] was 13 SFU, the “IFN-γ ELISpot response” value [6] was 13 SFU and the “Significant response as percentage” value (patient H, max peptide 17 SFU) was “+ (>70% = +)”. For the same sequence, the “IFN-γ ELISpot response” value [7] was 49 SFU, the “Significant response as percentage” value (patient ID not given, max peptide 95 SFU) was “′′′ (41-70% = ′′′)” and the “Significant response as percentage” value (patient II, max peptide 15 SFU) was “+ (>70% = +)”. For the same sequence, the “Significant response as percentage” value (patient J, max peptide 196 SFU) was “′′ (21-40% = ′′)”, the “Significant response as percentage” value (patient K, max peptide 53 SFU) was “′′ (21-40% = ′′)” and the “Significant response as percentage” value (patient M, max peptide 48 SFU) was “′′ (21-40% = ′′)”. The “IFN-γ ELISpot response” value [8] was 3 SFU, the “IFN-γ ELISpot response” value [9] was 17 SFU and the “IFN-γ ELISpot response” value [10] was 53 SFU. For the same sequence, the “Significant response as percentage” value (patient Q, max peptide 97 SFU) was “′′′ (41-70% = ′′′)”, the “IFN-γ ELISpot response” value [11] was 25 SFU and the “Significant response as percentage” value (patient U, max peptide 81 SFU) was “′′ (21-40% = ′′)”. The “IFN-γ ELISpot response” value [12] was 18 SFU, the “Significant response as percentage” value (patient V, max peptide 35 SFU) was “′′′ (41-70% = ′′′)” and the “IFN-γ ELISpot response” value [13] was 16 SFU. The “Significant response as percentage” value (patient Y, max peptide 16 SFU) was “+ (>70% = +)”, the “IFN-γ ELISpot response” value [14] was 25 SFU and the “Significant response as percentage” value (patient eleven, max peptide 57 SFU) was “′′′ (41-70% = ′′′)”. The “Significant response as percentage” value (patient five, max peptide 48 SFU) was “′′ (21-40% = ′′)”, the “IFN-γ ELISpot response” value [15] was 22 SFU and the “Significant response as percentage” value (patient four, max peptide 44 SFU) was “′′′ (41-70% = ′′′)”. For the same sequence, the “IFN-γ ELISpot response” value [16] was 8 SFU, the “IFN-γ ELISpot response” value [17] was 7 SFU and the “IFN-γ ELISpot response” value [18] was 75 SFU. The “IFN-γ ELISpot response” value [19] was 5 SFU, the “IFN-γ ELISpot response” value [20] was 14 SFU and the “Significant response as percentage” value (patient two, max peptide 60 SFU) was “′′ (21-40% = ′′)”.
